# Experiments:
# [1] = Cytotoxicity against dog MDCK cells assessed as cell viability measured after 48 hrs by MTT assay; format: toxicity, cell-based, Canis lupus familiaris
# [2] = Selectivity index, ratio of CC50 for cytotoxicity against dog MDCK cells to IC50 for anti-viral activity against Influenza A virus (A/Puerto Rico/8/34 infected in MDCK cells; format: toxicity, cell-based; settings: read-out: Selectivity Index
Structure (SMILES),CC50 at 48 h [1] [µM],selectivity ratio [2]
CC(=O)c1cc(C)c(O)c(Cc2[nH]c3ccc(F)cc3c2Cc2c(O)c(C)cc(C(C)=O)c2O)c1O,281,
CC(=O)c1cc(C)c(O)c(Cc2c(Cc3c(O)c(C)cc(C(C)=O)c3O)n(Cc3ccc(Cl)cc3)c3ccccc23)c1O,> 300,
CC(=O)c1cc(C)c(O)c(Cc2[nH]c3ccc(-c4cc(C(F)(F)F)cc(C(F)(F)F)c4)cc3c2Cc2c(O)c(C)cc(C(C)=O)c2O)c1O,> 300,
C=CCn1c(Cc2c(O)c(C)cc(C(C)=O)c2O)c(Cc2c(O)c(C)cc(C(C)=O)c2O)c2ccccc21,> 300,
COc1ccc(-c2ccc3c(Cc4c(O)c(C)cc(C(C)=O)c4O)c(Cc4c(O)c(C)cc(C(C)=O)c4O)[nH]c3c2)cc1OC,240,12.2
CC(=O)c1cc(C)c(O)c(Cc2[nH]c3ccc(-c4ccc(C(F)(F)F)cc4)cc3c2Cc2c(O)c(C)cc(C(C)=O)c2O)c1O,> 300,> 13.7
CC(=O)c1cc(C)c(O)c(Cc2[nH]c3cc(C)ccc3c2Cc2c(O)c(C)cc(C(C)=O)c2O)c1O,> 300,> 19.9
CC(=O)c1cc(C)c(O)c(Cc2[nH]c3cc(-c4ccc(C)cc4)ccc3c2Cc2c(O)c(C)cc(C(C)=O)c2O)c1O,> 300,> 12.4
CC(=O)c1cc(C)c(O)c(Cc2[nH]c3ccc(Br)cc3c2Cc2c(O)c(C)cc(C(C)=O)c2O)c1O,233,9.2
CC(=O)c1cc(C)c(O)c(Cc2[nH]c3cc(-c4ccc(F)cc4)ccc3c2Cc2c(O)c(C)cc(C(C)=O)c2O)c1O,256,13.4
CSc1ccc(-c2ccc3c(Cc4c(O)c(C)cc(C(C)=O)c4O)c(Cc4c(O)c(C)cc(C(C)=O)c4O)[nH]c3c2)cc1,> 300,> 33
CC(=O)c1cc(C)c(O)c(Cc2[nH]c3ccc(-c4csc5ccccc45)cc3c2Cc2c(O)c(C)cc(C(C)=O)c2O)c1O,> 300,> 12.8
COc1cccc(OC)c1-c1ccc2[nH]c(Cc3c(O)c(C)cc(C(C)=O)c3O)c(Cc3c(O)c(C)cc(C(C)=O)c3O)c2c1,271,12.9
COc1ccc(-c2ccc3c(Cc4c(O)c(C)cc(C(C)=O)c4O)c(Cc4c(O)c(C)cc(C(C)=O)c4O)[nH]c3c2)cc1,> 300,> 34.5
COc1ccc2cc(-c3ccc4[nH]c(Cc5c(O)c(C)cc(C(C)=O)c5O)c(Cc5c(O)c(C)cc(C(C)=O)c5O)c4c3)ccc2c1,> 300,> 14.2
CC(=O)c1cc(C)c(O)c(Cc2[nH]c3ccc(-c4ccc5c(c4)CCO5)cc3c2Cc2c(O)c(C)cc(C(C)=O)c2O)c1O,> 300,

Structure (SMILES),CC50 at 48 h [1] [µM],selectivity ratio [2]
CSc1ccc(-c2ccc3[nH]c(Cc4c(O)c(C)cc(C(C)=O)c4O)c(Cc4c(O)c(C)cc(C(C)=O)c4O)c3c2)cc1,> 300,> 17.1
CC(=O)c1cc(C)c(O)c(Cc2[nH]c3ccc(-c4ccc(Cl)cc4)cc3c2Cc2c(O)c(C)cc(C(C)=O)c2O)c1O,> 300,> 11.1
CC(=O)c1cc(C)c(O)c(Cc2[nH]c3cc(-c4c5ccccc5c(-c5ccccc5)c5ccccc45)ccc3c2Cc2c(O)c(C)cc(C(C)=O)c2O)c1O,> 300,
CC(=O)c1cc(C)c(O)c(Cc2[nH]c3ccc(-c4ccccc4)cc3c2Cc2c(O)c(C)cc(C(C)=O)c2O)c1O,> 300,> 11.5
CC(=O)c1cc(C)c(O)c(Cc2[nH]c3cc(-c4cccc(O)c4)ccc3c2Cc2c(O)c(C)cc(C(C)=O)c2O)c1O,126,
CC(=O)c1cc(C)c(O)c(Cc2[nH]c3cc(-c4ccccc4F)ccc3c2Cc2c(O)c(C)cc(C(C)=O)c2O)c1O,> 300,
CC(=O)c1cc(C)c(O)c(Cc2[nH]c3ccc(-c4cccc(F)c4)cc3c2Cc2c(O)c(C)cc(C(C)=O)c2O)c1O,> 300,
CC(=O)c1cc(C)c(O)c(Cc2[nH]c3ccc(Cl)cc3c2Cc2c(O)c(C)cc(C(C)=O)c2O)c1O,> 300,
CC(=O)c1cc(C)c(O)c(Cc2[nH]c3cc(-c4ccc(C(F)(F)F)cc4)ccc3c2Cc2c(O)c(C)cc(C(C)=O)c2O)c1O,> 300,> 12
CC(=O)c1cc(C)c(O)c(Cc2[nH]c3cc(-c4cc(C)cc(C)c4)ccc3c2Cc2c(O)c(C)cc(C(C)=O)c2O)c1O,> 300,> 29.7
CC(=O)c1cc(C)c(O)c(Cc2[nH]c3cc(-c4ccc5cccnc5c4)ccc3c2Cc2c(O)c(C)cc(C(C)=O)c2O)c1O,> 300,
COc1ccc(-c2ccc3[nH]c(Cc4c(O)c(C)cc(C(C)=O)c4O)c(Cc4c(O)c(C)cc(C(C)=O)c4O)c3c2)cc1,> 300,> 18.4
CC(=O)c1cc(C)c(O)c(Cc2[nH]c3cc(-c4cc(C(C)(C)C)cc(C(C)(C)C)c4)ccc3c2Cc2c(O)c(C)cc(C(C)=O)c2O)c1O,280,10.4
COc1cccc(OC)c1-c1ccc2c(Cc3c(O)c(C)cc(C(C)=O)c3O)c(Cc3c(O)c(C)cc(C(C)=O)c3O)[nH]c2c1,> 300,> 15.4
COc1ccc2c(Cc3c(O)c(C)cc(C(C)=O)c3O)c(Cc3c(O)c(C)cc(C(C)=O)c3O)[nH]c2c1,> 300,> 23.8

# From ChEMBL document CHEMBL5625170, “Design, synthesis, and biological evaluation of novel penindolone derivatives as potential inhibitors of hemagglutinin-mediated membrane fusion” (Eur J Med Chem, 2023)
